Source: patent US20230011571A1, “SMALL MOLECULE FURIN INHIBITORS FOR TREATING INFECTIOUS DISEASES” (BP Asset V, Inc., priority 2019, published 2023)

Tests used:
Format in all cases: cell-based
dengue virus (DENV) = assay: microbe, parasite or virus in culture; details: Dengue virus, Vero, 120 h, read-out: Percent viral inhibition DENY
Marburg virus (MARV) = assay: organism not typed; details: Vero, 72 h, read-out: Percent viral inhibition MARV
[1] = tested on: Chikungunya virus (CHIKV); assay: microbe, parasite or virus in culture; details: Chikungunya virus, Vero, 48 h, read-out: Percent viral inhibition CHKV

SMILES | inhibition at 1 µM (dengue virus (DENV)) [%] | inhibition at 1 µM (Marburg virus (MARV)) [%] | inhibition at 1 µM [1] [%]
CC(=O)NCC1CCN(Cc2cc(Oc3cnc(N4CCN(C)CC4)nc3)nc(-c3cc(Cl)cc(Cl)c3)c2)CC1 [Example 64, N-((1-((2-(3,5-dichlorophenyl)-6-((2-(4-methylpiperazin-1-yl)pyrimidin-5-yl)oxy)pyridin-4-yl)methyl)piperidin-4-yl)methyl)acetamide] | 37 | 37.8 | 6.9
CNC(=O)OCC1CCN(Cc2cc(Oc3cnc(N4CCN(C)CC4)nc3)nc(-c3cc(Cl)cc(Cl)c3)c2)CC1 [Example 66, (1-((2-(3,5-dichlorophenyl)-6-((2-(4-methylpiperazin-1-yl)pyrimidin-5-yl)oxy)pyridin-4-yl)methyl)piperidin-4-yl)methylmethylcarbamate] | 57.9 | 60.7 | 7.64
CNC(=O)NCC1CCN(Cc2cc(Oc3cnc(N4CCN(C)CC4)nc3)nc(-c3cc(Cl)cc(Cl)c3)c2)CC1 [Example 70, 1-((1-((2-(3,5-dichlorophenyl)-6-((2-(4-methylpiperazin-1-yl)pyrimidin-5-yl)oxy)pyridin-4-yl)methyl)piperidin-4-yl)methyl)-3-methylurea] | 0 | 5.52 | 0
CN1CCN(c2ncc(Oc3cc(CN4CCC(Cc5nnn[nH]5)CC4)cc(-c4cc(Cl)cc(Cl)c4)n3)cn2)CC1 [Example 72, 5-((4-((4-((1H-tetrazol-5-yl)methyl)piperidin-1-yl)methyl)-6-(3,5-dichlorophenyl)pyridin-2-yl)oxy)-2-(4-methylpiperazin-1-yl)pyrimidine] | 11.2 | 55.8 | 33.7
CNC(=O)OCC1CCN(Cc2cc(Oc3ccc(N4CCN(CCC(=O)O)CC4)nc3)nc(-c3cc(Cl)cc(Cl)c3)c2)CC1 [Example 77, 3-(4-(5-((6-(3,5-dichlorophenyl)-4-((4-(((methylcarbamoyl)oxy)methyl)piperidin-1-yl)methyl)pyridin-2-yl)oxy)pyridin-2-yl)piperazin-1-yl) propanoic acid] | 20.6 | 57.2 | 42
CS(=O)(=O)N[C@H]1[C@@H]2CCN(Cc3cc(Oc4cnc(N5CCN(CCC(=O)O)CC5)nc4)nc(-c4cc(Cl)cc(Cl)c4)c3)CC[C@@H]21 [Example 80, 3-(4-(5-((6-(3,5-dichlorophenyl)-4-(((1R,7S,8r)-8-(methylsulfonamido)-4-azabicyclo[5.1.0]octan-4-yl)methyl)pyridin-2-yl)oxy)pyrimidin-2-yl)piperazin-1-yl)propanoic acid] | 0 | 64.6 | 25
CC(CCN1CCN(c2ncc(Oc3cc(CN4CC[C@@H]5[C@H](CC4)[C@H]5NS(C)(=O)=O)cc(-c4cc(Cl)cc(Cl)c4)n3)cn2)CC1)C(=O)O (stereo partly drawn) [Example 81, 4-(4-(5-((6-(3,5-dichlorophenyl)-4-(((1R,7S,8r)-8-(methylsulfonamido)-4-azabicyclo[5.1.0]octan-4-yl)methyl)pyridin-2-yl)oxy)pyrimidin-2-yl)piperazin-1-yl)-2-methylbutanoic acid] | 50.5 | 73.7 | 26.1
CC(=O)N[C@H]1[C@@H]2CCN(Cc3cc(Oc4cnc(N5CCN(CCC(C)C(=O)O)CC5)nc4)nc(-c4cc(Cl)cc(Cl)c4)c3)CC[C@@H]21 (stereo partly drawn) [Example 82, 4-(4-(5-((4-(((1R,7S,8r)-8-acetamido-4-azabicyclo[5.1.0]octan-4-yl)methyl)-6-(3,5-dichlorophenyl)pyridin-2-yl)oxy)pyrimidin-2-yl)piperazin-1-yl)-2-methylbutanoic acid] | 19.8 | 53.2 | 18.4
CC(CCN1CCN(c2ncc(Oc3cc(CN4CCCC4)cc(-c4cc(Cl)cc(Cl)c4)n3)cn2)CC1)C(=O)O (stereo not drawn) [Example 83, 4-(4-(5-((6-(3,5-dichlorophenyl)-4-(pyrrolidin-1-ylmethyl)pyridin-2-yl)oxy)pyrimidin-2-yl)piperazin-1-yl)-2-methylbutanoic acid] | 28.9 | 53.8 | 33.4
CN1CCN(c2ncc(Oc3cc(CN4CCC(CCS(N)(=O)=O)CC4)cc(-c4cc(Cl)cc(Cl)c4)n3)cn2)CC1 [Example 87, 2-(1-((2-(3,5-dichlorophenyl)-6-((2-(4-methylpiperazin-1-yl)pyrimidin-5-yl)oxy)pyridin-4-yl)methyl)piperidin-4-yl)ethanesulfonamide] | 30.2 | 30.3 | 16.9
CC(=O)NCC1CCN(Cc2cc(Oc3cnc(N4CCN(CCC(N)=O)CC4)nc3)nc(-c3cc(Cl)cc(Cl)c3)c2)CC1 [Example 88, 3-(4-(5-((4-((4-(acetamidomethyl)piperidin-1-yl)methyl)-6-(3,5-dichlorophenyl)pyridin-2-yl)oxy)pyrimidin-2-yl)piperazin-1-yl)propanamide] | 54.6 | 58.6 | 10.9
CC(=O)NCC1CCN(Cc2cc(-c3cc(Cl)cc(Cl)c3)nc(Oc3ccc(N4CCNCC4)nc3)n2)CC1 [Example 90, N-((1-((6-(3,5-dichlorophenyl)-2-((6-(piperazin-1-yl)pyridin-3-yl)oxy)pyrimidin-4-yl)methyl)piperidin-4-yl)methyl)acetamide] | 54.9 | 75.5 | 44.2
CC(=O)NCC1CCN(Cc2cc(Oc3cnc(N4CCN(CCO)CC4)nc3)nc(-c3cc(Cl)cc(Cl)c3)c2)CC1 [Example 93, N-((1-((2-(3,5-dichlorophenyl)-6-((2-(4-(2-hydroxyethyl)piperazin-1-yl)pyrimidin-5-yl)oxy)pyridin-4-yl)methyl)piperidin-4-yl)methyl)acetamide] | 56.7 | 10.4 | 0
CNC(=O)CCN1CCN(c2ncc(Oc3cc(CN4CCC(CNC(C)=O)CC4)cc(-c4cc(Cl)cc(Cl)c4)n3)cn2)CC1 [Example 94, 3-(4-(5-((4-((4-(acetamidomethyl)piperidin-1-yl)methyl)-6-(3,5-dichlorophenyl)pyridin-2-yl)oxy)pyrimidin-2-yl)piperazin-1-yl)-N-methylpropanamide] | 41.5 | 66 | 31.3
CC(=O)NCC1CCN(Cc2cc(Oc3cnc(N4CCN(C(C)CC(N)=O)CC4)nc3)nc(-c3cc(Cl)cc(Cl)c3)c2)CC1 (stereo not drawn) [Example 95] | 58.1 | 59 | 46.6
CNCc1cc(Oc2ccc(N3CCNCC3)nc2)cc(-c2cc(Cl)cc(Cl)c2)c1 [Example 98, 1-(3′,5′-dichloro-5-((6-(piperazin-1-yl)pyridin-3-yl)oxy)-[1,1′-biphenyl]-3-yl)-N-methylmethanamine] | 0 | 0 | 0
NCCNc1ccc(Oc2cc(CN3CCOCC3)cc(-c3cc(Cl)cc(Cl)c3)c2)cn1 [Example 99, N1-(5-((3′,5′-dichloro-5-(morpholinomethyl)-[1,1′-biphenyl]-3-yl)oxy)pyridin-2-yl)ethane-1,2-diamine] | 15.4 | 0 | 0
CC(=O)NCC1CCN(Cc2cc(Oc3ccc(NCC(C)(C)N)nc3)cc(-c3cc(Cl)cc(Cl)c3)c2)CC1 [Example 105, N-((1-((5-((6-((2-amino-2-methylpropyl)amino)pyridin-3-yl)oxy)-3′,5′-dichloro-[1,1′-biphenyl]-3-yl)methyl)piperidin-4-yl)methyl)acetamide] | 19.9 | 0 | 0
CNCc1cc(Oc2ccc(N3CCC(N)CC3)nc2)nc(-c2cc(C)cc(Cl)c2)c1 [Example 108, 1-(5-((6-(3-chloro-5-methylphenyl)-4-((methylamino)methyl)pyridin-2-yl)oxy)pyridin-2-yl)piperidin-4-amine] | 0 | 65.7 | 16.4
CC(=O)NCC1CCN(Cc2cc(Oc3cnc(N4CCNCC4)cn3)nc(-c3cc(Cl)cc(Cl)c3)c2)CC1 [Example 109, N-((1-((2-(3,5-dichlorophenyl)-6-((5-(piperazin-1-yl)pyrazin-2-yl)oxy)pyridin-4-yl)methyl)piperidin-4-yl)methyl)acetamide] | 0 | 32.9 | 7.33
CC(=O)NCC1CCN(Cc2cc(Oc3cnc(N4CCN(C)CC4)cn3)nc(-c3cc(Cl)cc(Cl)c3)c2)CC1 [Example 110, N-((1-((2-(3,5-dichlorophenyl)-6-((5-(4-methylpiperazin-1-yl)pyrazin-2-yl)oxy)pyridin-4-yl)methyl)piperidin-4-yl)methyl)acetamide] | 13.6 | 59.5 | 9.88
CC(=O)NCC1CCN(Cc2cc(Oc3cnc(N4CCN(CCC(=O)O)CC4)cn3)nc(-c3cc(Cl)cc(Cl)c3)c2)CC1 [Example 111] | 48.8 | 29.8 | 22.3
O=C(O)CCC1CCN(Cc2cc(Oc3cnc(N4CCN(CCO)CC4)nc3)cc(-c3cc(Cl)cc(Cl)c3)c2)CC1 [Example 114, 3-(1-((3′,5′-dichloro-5-((2-(4-(2-hydroxyethyl)piperazin-1-yl)pyrimidin-5-yl)oxy)-[1,1′-biphenyl]-3-yl)methyl)piperidin-4-yl)propanoic acid] | 38.1 | 74.2 | 26.6
CC(=O)NCC1CCN(Cc2cc(Oc3ccc(N4CCN(CCC(=O)O)CC4)nc3)nc(-c3cc(F)cc(Cl)c3)c2)CC1 [Example 115, 3-(4-(5-((4-((4-(acetamidomethyl)piperidin-1-yl)methyl)-6-(3-chloro-5-fluorophenyl)pyridin-2-yl)oxy)pyridin-2-yl)piperazin-1-yl)propanoic acid] | 2.3 | 59.2 | 4.53
